Test results from patent US8598202B2, “Aryl-hydroxyethylamino-pyrimidines and triazines as modulators of fatty acid amide hydrolase” (Janssen Pharmaceutica NV, priority 2008, dated 2013).
Where a name gives a salt, the structure may show the parent alone.

Legend:
Rat FAAH-1 = target: T1, Rat FAAH-1 (Rattus norvegicus, UniProt P97612); test: Assay Method 2: rat FAAH-1 assay, 3H-anandamide hydrolysis in homogenate of SK-N-MC cells transfected with rat FAAH
T1 sequence (P97612 1-579): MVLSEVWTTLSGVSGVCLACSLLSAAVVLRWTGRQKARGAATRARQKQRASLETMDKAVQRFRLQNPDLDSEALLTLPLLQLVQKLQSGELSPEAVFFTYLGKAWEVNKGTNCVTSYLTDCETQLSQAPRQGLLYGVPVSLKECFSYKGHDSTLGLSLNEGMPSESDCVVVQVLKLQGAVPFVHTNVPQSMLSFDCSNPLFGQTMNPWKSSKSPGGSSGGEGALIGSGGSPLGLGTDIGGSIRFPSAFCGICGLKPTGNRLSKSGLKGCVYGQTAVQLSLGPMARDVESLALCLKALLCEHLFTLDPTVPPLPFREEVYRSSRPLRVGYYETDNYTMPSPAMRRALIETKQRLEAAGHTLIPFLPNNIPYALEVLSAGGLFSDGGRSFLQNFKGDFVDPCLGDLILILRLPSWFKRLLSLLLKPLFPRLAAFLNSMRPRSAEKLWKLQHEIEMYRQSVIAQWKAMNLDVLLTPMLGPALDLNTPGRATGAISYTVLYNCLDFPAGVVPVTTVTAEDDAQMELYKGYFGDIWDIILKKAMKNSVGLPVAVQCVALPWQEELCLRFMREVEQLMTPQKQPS

FAAH = target: T2, FAAH (Homo sapiens, UniProt O00519); test: Assay Method 1: FAAH assay, 3H-anandamide hydrolysis in homogenate of T84 cells or SK-N-MC cells transfected with human FAAH
T2 sequence (O00519 1-579): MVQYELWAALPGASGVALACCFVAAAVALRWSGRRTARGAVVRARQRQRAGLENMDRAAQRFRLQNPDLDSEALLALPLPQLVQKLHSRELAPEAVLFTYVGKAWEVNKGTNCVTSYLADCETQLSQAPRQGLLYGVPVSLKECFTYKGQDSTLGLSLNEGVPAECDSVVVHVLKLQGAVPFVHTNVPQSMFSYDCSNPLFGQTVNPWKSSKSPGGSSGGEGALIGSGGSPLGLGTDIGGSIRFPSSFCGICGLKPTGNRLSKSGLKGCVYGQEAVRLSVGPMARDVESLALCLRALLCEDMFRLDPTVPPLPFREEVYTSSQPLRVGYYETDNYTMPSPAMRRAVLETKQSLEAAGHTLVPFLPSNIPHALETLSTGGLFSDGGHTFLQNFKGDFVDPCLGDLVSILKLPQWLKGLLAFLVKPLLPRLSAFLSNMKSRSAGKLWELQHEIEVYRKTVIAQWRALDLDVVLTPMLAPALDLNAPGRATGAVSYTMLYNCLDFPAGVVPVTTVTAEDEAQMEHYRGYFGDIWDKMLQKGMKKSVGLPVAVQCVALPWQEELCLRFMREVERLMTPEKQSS

Compound	IC50 (Rat FAAH-1)	IC50 (FAAH)
O[C@@H](CNc1cc(-c2cc3ccc(C(F)(F)F)cc3s2)ncn1)c1ccccc1 [Example 186, (1R)-1-Phenyl-2-({6-[6-(trifluoromethyl)-1-benzothiophen-2-yl]pyrimidin-4-yl}amino)ethanol trifluoroacetic acid salt]	> 10000 nM	7070 nM
C[C@H]([C@H](O)c1ccccc1)N(C)c1cc(-c2ccc(OC(F)(F)F)cc2)ncn1 [Example 120, (1R,2R)-2-[Methyl(6-{4-[(trifluoromethyl)oxy]phenyl}pyrimidin-4-yl)amino]-1-phenylpropan-1-ol]	> 10000 nM	> 10000 nM
Cc1ccc(-c2cc(NCC(O)c3ccccc3)ncn2)cc1C (centres unmarked) [Example 223, 2-{[6-(3,4-Dimethylphenyl)pyrimidin-4-yl]amino}-1-phenylethanol]	707 nM	144 nM
O[C@@H](CNc1ncnc(-c2ccc(C(F)(F)F)cc2)n1)c1ccccc1 [Example 103, (1R)-1-Phenyl-2-({4-[4-(trifluoromethyl)phenyl]-1,3,5-triazin-2-yl}amino)ethanol trifluoroacetic acid salt]	350 nM	305 nM
OC(CNc1cc(-c2ccc(C(F)(F)F)c(Cl)c2)ncn1)c1ccc(F)cc1 (centres unmarked) [Example 190, 2-({6-[3-Chloro-4-(trifluoromethyl)phenyl]pyrimidin-4-yl}amino)-1-(4-fluorophenyl)ethanol]	12 nM	7 nM
CSc1ccc(C(O)CNc2cc(-c3ccc(C(F)(F)F)c(Cl)c3)ncn2)cc1 (centres unmarked) [Example 167, 2-({6-[3-Chloro-4-(trifluoromethyl)phenyl]pyrimidin-4-yl}amino)-1-[4-(methylsulfanyl)phenyl]ethanol]	20 nM	60 nM
O[C@@H](CNc1cc(-c2ccc3sccc3c2)ncn1)c1ccccc1 [Example 100, (1R)-2-{[6-(1-Benzothiophen-5-yl)pyrimidin-4-yl]amino}-1-phenylethanol trifluoroacetic acid salt]	1400 nM	43 nM
CC(C)(C)NS(=O)(=O)c1ccc(-c2cc(NC[C@H](O)c3ccccc3)ncn2)cc1 [Example 171, N-tert-Butyl-4-(6-{[(2R)-2-hydroxy-2-phenylethyl]amino}pyrimidin-4-yl)benzenesulfonamide]	> 10000 nM	1600 nM
OCCNc1nc(NC[C@H](O)c2ccccc2)cc(-c2ccc(C(F)(F)F)c(Cl)c2)n1 [Example 160, (1R)-2-({6-[3-Chloro-4-(trifluoromethyl)phenyl]-2-[(2-hydroxyethyl)amino]pyrimidin-4-yl}amino)-1-phenylethanol trifluoroacetic acid salt]	290 nM	150 nM
Cc1nc(NC[C@H](O)c2ccccc2)cc(-c2ccc(C(F)(F)F)c(Cl)c2)n1 [Example 73, (1R)-2-({6-[3-Chloro-4-(trifluoromethyl)phenyl]-2-methylpyrimidin-4-yl}amino)-1-phenylethanol]	40 nM	20 nM
Cn1ccc2cc(-c3cc(NC[C@H](O)c4ccccc4)ncn3)ccc21 [Example 90, (1R)-2-{[6-(1-Methyl-1H-indol-5-yl)pyrimidin-4-yl]amino}-1-phenylethanol trifluoroacetic acid salt]	675 nM	4 nM
OC(CNc1cc(-c2ccc(OC(F)(F)F)cc2)ncn1)c1cc(Cl)cc(Cl)c1 (centres unmarked) [Example 126, 1-(3,5-Dichlorophenyl)-2-[(6-{4-[(trifluoromethyl)oxy]phenyl}-pyrimidin-4-yl)amino]ethanol]	1000 nM	1200 nM
O[C@@H](CNc1cc(-c2ccc(C(F)(F)F)c(Cl)c2)nc(NC2CC2)n1)c1ccccc1 [Example 162, (1R)-2-({6-[3-Chloro-4-(trifluoromethyl)phenyl]-2-(cyclopropylamino)pyrimidin-4-yl}amino)-1-phenylethanol trifluoroacetic acid salt]	130 nM	570 nM
